# Reference: patent US20180284095A1, “BIOMARKERS ASSOCIATED WITH LSD1 INHIBITORS AND USES THEREOF” (Oryzon Genomics, S.A., priority 2015, published 2018)
# Assays:
# Type in all cases: in vivo, mouse
# TUBB2C = assay: Microarray gene expression in brain, spleen and liver of Hsd:Athymic Nude-Foxn1nu mice (Example 7), housekeeping gene
# Protocol: (§1) Total RNA was extracted from samples using the RNeasy extraction kit (Qiagen). The quality and concentration of the RNA was analyzed using the Agilent 2100 bioanalyzer and NanoDrop™ ND-1000 (Thermo Scientific). Samples with RNA integrity number (RIN)<6.0 were discarded. Total RNA (0.5 μg) amplification and labelling with Cy3 or Cy5 was carried out using the Eberwein mRNA amplification procedure (Van Gelder et al, Proc Natl Acad Sci USA 1990, 87:1663-1667) employing the MessageAmp™ aRNA amplification kit from Ambion (Applied Biosystems) following the manufacturer's instructions with minor modifications. As hybridization controls, plant mRNAs were transcribed from a plasmid containing the Zea mays Xet (xyloglucan endo-transglycosylase) cDNA and from a plasmid containing the Zea mays Zmmyb42 cDNA, independently prepared Cy3 and Cy5 labelled aRNA from these two RNAs using the Eberwein mRNA amplification procedure (as disclosed in Cerdà et al, Gen Comp Endocrinol 2008, 156:470-481).
# (§2) The Cy3- and Cy5-labelled cRNAs and spikes were combined and hybridized to the microarray described in Example 2.6 for 17 h at 60° C. using Agilent's gaskets G2534-60002, G2534A hybridization chambers and DNA Hybridization Oven G2545A, according to the manufacturer's instructions. More specifically, equal amounts of Cy3 and Cy5 labeled Xet aRNA as well as equal amounts of Cy3 and Cy5 labeled Zmmyb42 aRNA were spiked into each mixture hybridized to the array. Arrays were washed and raw data were obtained using Agilent's DNA Microarray Scanner G2505B and Feature Extraction software (v10.1). The raw fluorescence intensity data were processed using applicant's proprietary software, and consists in the following operations:
# (§3) Data normalization was carried out by an improved version of the nonlinear Q-splines normalization method (Workman et al., Genome Biol 2002, 3(9):research0048.1-0048.16). Normalization results were presented graphically as MA plots, as first described by Dudoit et al (Dudoit et al, Statistica Sinica, 2002, 12:111-139). Each point corresponds to a probe of the DNA array. M values (vertical axis) are the log-differential expression ratios. A values (horizontal axis) are the log-intensities of the spots. M and A are calculated from the Cy5 and Cy3 intensity values as of each spot. The DNA Array data is normalized using an improved version of non-linear Q-Splines normalization described by Workman et al., Genome Biol 2002, 3(9):research0048.1-0048.16. This process is useful to correct the deviation of the M values from the statistical assumption that most of the spots have M=0 in MA plots. The method allows the adjustment of all M values to form a cloud centered at M=0 in all intensity ranges. The data used to calculate the normalization fitting curve is the totality of the raw measurement dataset, excluding the signals for the probes for the spiked-in plant RNA controls and negative controls. In order to be able to normalize properly the data among all the experiments, the probe-set must include an important group of genes that should have no change (M=0) in the experiment. The normalization function is then applied to all the data, including controls.
# (§4) Normalized and log-transformed data were used to calculate log 2 (sample/control) and Fold Change (FC) values. No background subtraction was applied to the signal intensity values during data processing, permitting robust selection of differentially expressed genes with low expression levels at the cost of potential sub-estimation of change when intensity levels are close to the array background level.
# (§5) Powered Compound 3, 4 or 5 was dissolved in a 20% solution of 2-hydroxypropyl-R-cyclodextrin in water at the appropriate concentrations, vortexed and placed in an ultrasonic bath for 5 minutes.
# (§6) Hsd:Athymic Nude-Foxn1nu mice were maintained in air- and temperature-controlled cages with regular supply of water and food. A maximum of 6 mice/cage were raised. […]
# TUBB3 = assay: as above
# Protocol: as §1, §2, §3, §4, §5, §6
# S100A8 = assay: Microarray gene expression in brain, spleen and liver of Hsd:Athymic Nude-Foxn1nu mice (Example 7)
# Protocol: as §1, §2, §3, §4, §5, §6
# S100A9 = assay: as above
# Protocol: as §1, §2, §3, §4, §5, §6
smiles,measurement,setting,value
"N[C@H]1CCN(CCN[C@H]2C[C@@H]2c2ccc(-c3cccc(C(F)(F)F)c3)cc2)C1 (racemic) [Compound 5, (S)-1-(2-(((trans)-2-(3′-(trifluoromethyl)-[1,1′-biphenyl]-4-yl)cyclopropyl)amino)ethyl)pyrrolidin-3-amine]",Hybridization signal sample_Cy5,"TUBB2C; BRAIN, 3.3 mg/kg",10642
same,log2 (sample/control),"TUBB2C; BRAIN, 3.3 mg/kg vs VEH",−0.01396
same,Hybridization signal sample_Cy5,"TUBB2C; BRAIN, 11 mg/kg",11161.1
same,log2 (sample/control),"TUBB2C; BRAIN, 11 mg/kg vs VEH",−0.06127
same,Hybridization signal sample_Cy5,"TUBB2C; BRAIN, 33 mg/kg",12584.1
same,log2 (sample/control),"TUBB2C; BRAIN, 33 mg/kg vs VEH",−0.05145
same,Hybridization signal sample_Cy5,"TUBB2C; LIVER, 3.3 mg/kg",3670.67
same,log2 (sample/control),"TUBB2C; LIVER, 3.3 mg/kg vs VEH",0.3692
same,Hybridization signal sample_Cy5,"TUBB2C; LIVER, 11 mg/kg",3985.13
same,log2 (sample/control),"TUBB2C; LIVER, 11 mg/kg vs VEH",0.457
same,Hybridization signal sample_Cy5,"TUBB2C; LIVER, 33 mg/kg",4335.41
same,log2 (sample/control),"TUBB2C; LIVER, 33 mg/kg vs VEH",0.3205
same,Hybridization signal sample_Cy5,"TUBB2C; SPLEEN, 3.3 mg/kg",8986.8
same,log2 (sample/control),"TUBB2C; SPLEEN, 3.3 mg/kg vs VEH",−0.9476
same,Hybridization signal sample_Cy5,"TUBB2C; SPLEEN, 11 mg/kg",9222.71
same,log2 (sample/control),"TUBB2C; SPLEEN, 11 mg/kg vs VEH",−0.8739
same,Hybridization signal sample_Cy5,"TUBB2C; SPLEEN, 33 mg/kg",6535.64
same,log2 (sample/control),"TUBB2C; SPLEEN, 33 mg/kg vs VEH",−1.41
same,Hybridization signal sample_Cy5,"TUBB3; BRAIN, TUBB3, 3.3 mg/kg",4740.83
same,log2 (sample/control),"TUBB3; BRAIN, TUBB3, 3.3 mg/kg vs VEH",−0.05126
same,Hybridization signal sample_Cy5,"TUBB3; BRAIN, TUBB3, 11 mg/kg",6217.25
same,log2 (sample/control),"TUBB3; BRAIN, TUBB3, 11 mg/kg vs VEH",−0.02834
same,Hybridization signal sample_Cy5,"TUBB3; BRAIN, TUBB3, 33 mg/kg",5722.06
same,log2 (sample/control),"TUBB3; BRAIN, TUBB3, 33 mg/kg vs VEH",0.1073
same,Hybridization signal sample_Cy5,"TUBB3; LIVER, TUBB3, 3.3 mg/kg",49.0459
same,log2 (sample/control),"TUBB3; LIVER, TUBB3, 3.3 mg/kg vs VEH",−0.4483
same,Hybridization signal sample_Cy5,"TUBB3; LIVER, TUBB3, 11 mg/kg",43.197
same,log2 (sample/control),"TUBB3; LIVER, TUBB3, 11 mg/kg vs VEH",−0.6411
same,Hybridization signal sample_Cy5,"TUBB3; LIVER, TUBB3, 33 mg/kg",52.03
same,log2 (sample/control),"TUBB3; LIVER, TUBB3, 33 mg/kg vs VEH",−0.4211
same,Hybridization signal sample_Cy5,"TUBB3; SPLEEN, TUBB3, 3.3 mg/kg",88.3418
same,log2 (sample/control),"TUBB3; SPLEEN, TUBB3, 3.3 mg/kg vs VEH",0.169
same,Hybridization signal sample_Cy5,"TUBB3; SPLEEN, TUBB3, 11 mg/kg",229.738
same,log2 (sample/control),"TUBB3; SPLEEN, TUBB3, 11 mg/kg vs VEH",1.521
same,Hybridization signal sample_Cy5,"TUBB3; SPLEEN, TUBB3, 33 mg/kg",167.826
same,log2 (sample/control),"TUBB3; SPLEEN, TUBB3, 33 mg/kg vs VEH",1.398
same,Hybridization signal sample_Cy5,"S100A8; BRAIN, S100A8, 3.3 mg/kg",268.162
same,log2 (sample/control),"S100A8; BRAIN, S100A8, 3.3 mg/kg vs VEH",−0.6462
same,Hybridization signal sample_Cy5,"S100A8; BRAIN, S100A8, 11 mg/kg",38.4889
same,log2 (sample/control),"S100A8; BRAIN, S100A8, 11 mg/kg vs VEH",−3.263
same,Hybridization signal sample_Cy5,"S100A8; BRAIN, S100A8, 33 mg/kg",36.6941
same,log2 (sample/control),"S100A8; BRAIN, S100A8, 33 mg/kg vs VEH",−3.57
same,Hybridization signal sample_Cy5,"S100A8; LIVER, S100A8, 3.3 mg/kg",315.439
same,log2 (sample/control),"S100A8; LIVER, S100A8, 3.3 mg/kg vs VEH",−0.4761
same,Hybridization signal sample_Cy5,"S100A8; LIVER, S100A8, 11 mg/kg",73.2915
same,log2 (sample/control),"S100A8; LIVER, S100A8, 11 mg/kg vs VEH",−2.357
same,Hybridization signal sample_Cy5,"S100A8; LIVER, S100A8, 33 mg/kg",57.5133
same,log2 (sample/control),"S100A8; LIVER, S100A8, 33 mg/kg vs VEH",−2.909
same,Hybridization signal sample_Cy5,"S100A8; SPLEEN, S100A8, 3.3 mg/kg",4802.3
same,log2 (sample/control),"S100A8; SPLEEN, S100A8, 3.3 mg/kg vs VEH",−1.65
same,Hybridization signal sample_Cy5,"S100A8; SPLEEN, S100A8, 11 mg/kg",382.984
same,log2 (sample/control),"S100A8; SPLEEN, S100A8, 11 mg/kg vs VEH",−5.38
same,Hybridization signal sample_Cy5,"S100A8; SPLEEN, S100A8, 33 mg/kg",408.877
same,log2 (sample/control),"S100A8; SPLEEN, S100A8, 33 mg/kg vs VEH",−5.243
same,Hybridization signal sample_Cy5,"S100A9; BRAIN, S100A9, 3.3 mg/kg",746.537
same,log2 (sample/control),"S100A9; BRAIN, S100A9, 3.3 mg/kg vs VEH",−0.9635
same,Hybridization signal sample_Cy5,"S100A9; BRAIN, S100A9, 11 mg/kg",60.5479
same,log2 (sample/control),"S100A9; BRAIN, S100A9, 11 mg/kg vs VEH",−4.54
same,Hybridization signal sample_Cy5,"S100A9; BRAIN, S100A9, 33 mg/kg",58.3941
same,log2 (sample/control),"S100A9; BRAIN, S100A9, 33 mg/kg vs VEH",−4.697
same,Hybridization signal sample_Cy5,"S100A9; LIVER, S100A9, 3.3 mg/kg",987.357
same,log2 (sample/control),"S100A9; LIVER, S100A9, 3.3 mg/kg vs VEH",−0.5728
same,Hybridization signal sample_Cy5,"S100A9; LIVER, S100A9, 11 mg/kg",170.929
same,log2 (sample/control),"S100A9; LIVER, S100A9, 11 mg/kg vs VEH",−3.056
same,Hybridization signal sample_Cy5,"S100A9; LIVER, S100A9, 33 mg/kg",113.971
same,log2 (sample/control),"S100A9; LIVER, S100A9, 33 mg/kg vs VEH",−3.811
same,Hybridization signal sample_Cy5,"S100A9; SPLEEN, S100A9, 3.3 mg/kg",13461.8
same,log2 (sample/control),"S100A9; SPLEEN, S100A9, 3.3 mg/kg vs VEH",−1.719
same,Hybridization signal sample_Cy5,"S100A9; SPLEEN, S100A9, 11 mg/kg",963.073
same,log2 (sample/control),"S100A9; SPLEEN, S100A9, 11 mg/kg vs VEH",−5.625
same,Hybridization signal sample_Cy5,"S100A9; SPLEEN, S100A9, 33 mg/kg",944.034
same,log2 (sample/control),"S100A9; SPLEEN, S100A9, 33 mg/kg vs VEH",−5.685
